Patent US6284758A, “Angiogenesis promoters and angiogenesis potentiators” (priority 1997, dated 2001)

What was measured:
rat and dog = assay: Acute toxicity, oral, rat and dog (overall finding); assay type: in vivo; details: oral administration
[1] = Hypotensive action in rat; assay type: in vivo; details: 5 mg/kg, based on vasodilating action
[2] = test system: rat sponge model (angiogenesis); assay: Relationship between dose and angiogenesis promotion by compound A in rat sponge model; assay type: in vivo; details: for Hemoglobin amount in sponge vs vehicle (in words): 7 times in total, Dunnett test
Experimental: (§1) The test animal models were prepared in the same manner as in Experimental Example 1.
As a reagent, compound A (4-bromo-6-[3-(4-chlorophenyl)-propoxy]-5-(3-pyridylmethylamino)-3-(2H)-pyridazinone hydrochloride, 35 mg) produced by a conventional method was suspended in 0.5% methylcellulose solution (70 ml) in a mortar and used as a 5 mg/kg administration reagent.
This suspension was diluted two-fold and 5-fold with a vehicle (0.5% methylcellulose solution) to give 2.5 mg/kg administration reagent and 1 mg/kg administration reagent (respective dose 10 ml/kg). The vehicle (0.5% methylcellulose solution) was used as a control. The vehicle was obtained by dissolving methylcellulose (5 g, manufactured by Kishida Chemical Industries, Ltd.) in distilled water (1000 ml).
Each reagent (compound A) and the vehicle were orally administered repeatedly (7 times in total) from the day of sponge embedding at a dose of 10 ml/kg twice a day for 4 days. The sponge was removed on the next day of the final administration, and hemoglobin in the sponge was calculated in the same manner as Experimental in Example 1.
Each group contained […] animals and the obtained data were expressed in mean±standard error. For the evaluation of the angiogenic effect, a Dunnett test was performed using the vehicle administration group as a control to examine significant difference. The significance was ascribed at less than 5% risk rate.

[3] = test system: rat sponge model (angiogenic effect of b-FGF); assay: Potentiation of angiogenic effect of b-FGF by compound A in rat sponge model (b-FGF 1 μg/sponge); assay type: in vivo; details: for Hemoglobin in sponge at 4 days after embedding: mean±standard error, number of animals 10
Experimental: as §1
As a reagent, compound A (4-bromo-6-[3-(4-chlorophenyl)-propoxy]-5-(3-pyridylmethylamino)-3-(2H)-pyridazinone hydrochloride, 50 mg) produced by a conventional method was suspended in 0.5% methylcellulose solution (100 ml) in a mortar and used.
The vehicle (0.5% methylcellulose solution) was obtained by dissolving methylcellulose (5 g, manufactured by Kishida Chemical Industries, Ltd.) in distilled water (1000 ml).
A 0.1% bovine serum albumin (BSA)-physiological saline solution was prepared by dissolving BSA (0.1 g, Sigma) in physiological saline (100 Ml).
A b-FGF solution was prepared by dissolving recombinant b-FGF (20 μg, manufactured by BTI) in 0.1% BSA-physiological saline solution (2 ml).
A hemostatic gelatin sponge was the same as that used in Experimental Example 1.
The test group was divided into 3 groups. A sponge wetted with 100 μl of 0.1% BSA-physiological saline solution was embedded in group 1. A sponge (1 μg b-FGF/sponge) wetted with b-FGF solution (100 μl) was embedded in group 2 and group 3.
The vehicle was orally administered to group 1 and group 2, and the reagent (compound A) was orally administered to group 3 repeatedly from the day of sponge embedding at the dose of 10 ml/kg twice a day for 4 days.
In every test group, the administration began from the evening (single administration) of the very day of embedding. The time of administration of the drug was around 9 a.m. for the first administration and around 7 p.m. for the second administration. In consideration of the effect of the drug, the drug was not administered on the very day of sponge removal (7 times of administration in total).
After 4 days from the embedding, an excess amount of pentobarbital was intravenously injected to the animals for euthanasia. The back was opened, and the tissue surrounding the embedded sponge was removed and the surface of the sponge was photographed. The sponge was taken out and hemoglobin in the sponge was calculated in the same manner as in Experimental Example 1.
The obtained data were expressed in mean±standard error. For the evaluation of the angiogenic effect, a multiple comparison test by Tukey method was performed to examine significant difference. The significance was ascribed at less than 5% risk rate.

[4] = Acute toxicity, oral, rat; details: in vivo, oral administration
[5] = Acute toxicity, oral, dog; details: in vivo, oral administration
[6] = test system: rat sponge model (angiogenesis); assay: Angiogenesis promotion by compound A in rat sponge model (embedded gelatin sponge; hemoglobin in sponge and photograph); assay type: in vivo
Experimental: Rats were anesthetized by intraperitoneal administration of sodium pentobarbital (50 mg/kg), and the dorsal median line was incised for about 1 cm and an air pocket was made subcutaneously at about 2.5 cm toward the tail side with a Kocher clamp. A hemostatic gelatin sponge (Spongel®, 10 mm×10 mm×7 mm; manufactured by Yamanouchi Pharmaceutical Co., Ltd.) impregnated with physiological saline was embedded therein. The opening was sutured and antisepticized to give a test animal model.
As a reagent, compound A (4-bromo-6-[3-(4-chlorophenyl)-propoxy]-5-(3-pyridylmethylamino)-3-(2H)-pyridazinone hydrochloride, 100 mg) produced by a conventional method was suspended in 0.5% methylcellulose solution (100 ml) in a mortar and used.
As a control, a vehicle (0.5% methylcellulose solution) was used. The vehicle was obtained by dissolving methylcellulose (5 g, manufactured by Kishida Chemical Industries, Ltd.) in distilled water (1000 ml).
The reagent (compound A) and the vehicle were orally administered repeatedly from the day of sponge embedding at a dose of 10 ml/kg once a day for 4 days or 7 days. The administration was performed 30 minutes before anesthetizing the animal on the very day of embedding, and the sponge was removed on the next day of the final administration.
After 4 days or 7 days from the embedding, an excess amount of pentobarbitalwas intravenously injected to the animals for euthanasia. The back was opened, and the tissue surrounding the embedded sponge was removed and the surface of the sponge was photographed. The sponge was taken out and placed in a 0.1M aqueous ammonia (2 ml), which was stood for 4 hr to extract hemoglobin in the sponge. The extract (100 μl) was taken, and hemoglobin was quantitated using an assay kit (hemoglobin B-TESTWAKO; manufactured by Wako Pure Chemical Industries, Ltd.) and used as the index of angiogenesis. The amount of hemoglobin in the sponge was calculated by the following formula.
Amount of hemoglobin in sponge (mg/sponge)=hemoglobin (mg) in extract (100
μl)×20 (total extract 2 ml)
The obtained data were expressed in mean±standard error. For the evaluation of the angiogenic effect, an unpaired t-test was performed using the animals administered with the drug for 4 days or 7 days and respective vehicle groups as control to examine significant difference. The significance was ascribed at less than 5% risk rate.

[7] = day 4 and day 7, also seen with vehicle

| Compound | Toxicity (in words) (rat and dog) | Hypotensive action [1] | Hemoglobin amount in sponge vs vehicle (in words) ([2]; 2.5 mg/kg orally twice a day) | Hemoglobin amount in sponge vs vehicle (in words) ([2]; 5 mg/kg orally twice a day) | Effect at 5 mg/kg on hemoglobin amount, tendency (in words) ([2]; 5 mg/kg, postulated due to decrease in blood flow from hypotensive action) | Angiogenesis promotion effect at a dose substantially free from hypotensive action (in words) ([2]; rat) | Observation of photograph: neovascularized blood vessels ([3]; day 4, group 3 (b-FGF and compound A, 5 mg/kg, co-administration) vs group 2 (b-FGF alone)) | Hemoglobin content vs group 1 and group 2 (in words) ([3]; group 3 (b-FGF and compound A, 5 mg/kg, co-administration), day 4) | Hemoglobin in sponge at 4 days after embedding ([3]; group 3: compound A 5 mg/kg orally twice a day (7 times in total) plus b-FGF (1 μg/sponge) in sponge, p < 0.01 relative to group 1 and group 2 (Tukey method)) | LD50 [4] | LD50 [5] | Time course of amount of hemoglobin in sponge (in words) [6, 7] | Time course of neovascularized blood vessels on the sponge surface (in words) [6, 7] | Amount of hemoglobin in sponge vs vehicle (in words) ([6]; day 7 of the test) | Observation of photograph: neovascularized blood vessels on the sponge surface ([6]; day 7 of the test, vs vehicle administration group) | Hemoglobin in sponge, 4 days after embedding ([6]; oral, 10 ml/kg (100 mg/100 ml suspension) once a day for 4 days, mean±standard error, number of animals 10, vehicle 6.216 ± 0.903) | Hemoglobin in sponge, 7 days after embedding ([6]; oral, 10 ml/kg (100 mg/100 ml suspension) once a day for 7 days, mean±standard error, number of animals 9, vehicle 9.585 ± 0.774, **p < 0.01 relative to vehicle, unpaired t-test) | Observation of photograph: neovascularized blood vessels ([3]; day 4, group 2 (b-FGF single administration) vs group 1 (BSA-physiological saline)) | Hemoglobin in sponge at 4 days after embedding ([3]; group 2: b-FGF (1 μg/sponge) in sponge, vehicle orally, group 1 (BSA-saline) 5.503 ± 0.562) |
| --- | --- | --- | --- | --- | --- | --- | --- | --- | --- | --- | --- | --- | --- | --- | --- | --- | --- | --- | --- |
| Cl.O=c1[nH]nc(OCCCc2ccc(Cl)cc2)c(NCc2cccnc2)c1Br [compound A, 4-bromo-6-[3-(4-chlorophenyl)-propoxy]-5-(3-pyridylmethylamino)-3-(2H)-pyridazinone hydrochloride] | extremely low toxic | causes hypotensive action in rat | showed a significant increase in hemoglobin amount | showed a significant increase in hemoglobin amount | the effect tended to weaken somewhat, though a significant difference was found | superior angiogenesis promotion effect at a dose substantially free from hypotensive action | showed still more neovascularized blood vessels than in group 2 | showed a significant increase in hemoglobin content as compared to group 1 (0.1% BSA-physiological saline solution group) and group 2 (b-FGF single administration group) | 14.995 ± 2.307 mg/sponge | ≥ 2000 mg/kg | ≥ 2000 mg/kg | showed an increase in the amount of hemoglobin in sponge at day 4 and day 7 of the test, in proportion to the number of days lapsed | showed an increase of neovascularized blood vessels on the sponge surface at day 4 and day 7 of the test in proportion to the number of days lapsed | showed a significant increase as compared to the vehicle administration group | showed more neovascularized blood vessels than in the vehicle administration group | 6.255 ± 0.807 mg/sponge | 16.351 ± 1.836 mg/sponge |  |  |
| b-FGF: recombinant b-FGF (20 μg, manufactured by BTI); basic fibroblast growth factor |  |  |  |  |  |  |  |  |  |  |  |  |  |  |  |  |  | visually showed more neovascularized blood vessels than in group 1 | 7.285 mg/sponge |
